Source: patent publication US10434076B2, “Use of 2,5-dihydroxybenzene derivatives for treating dermatitis” (AmDerma Pharmaceuticals, LLC, priority 2006, dated 2019)
Entries after “also recorded” stand apart in the source; their conditions may differ.

What was measured:
[1] = molecular target: Fibroblast Growth Factor-1 (FGF-1) (Homo sapiens, UniProt P05230); assay: Structural interaction with FGF-1 (diffraction of complex crystals); assay type: binding; details: electron density
Procedure: As of the diffraction from complex crystals of FGF-1: 2-acetoxy-5-hydroxybenzenesulfonic acid, FGF-1; 5-acetoxy-2-hydroxybenzenesulfonic acid and FGF-1: 2,5-diacetoxybenzenesulfonic acid, the complex structures were calculated and represented. In FIGS. 10, 11 and 12, representing the surface of the protein coloured according to its electrostatic potential (light grey: negative charge, dark grey: positive charge, white: areas with no charge), the interaction form of the 2-acetoxy-5-hydroxybenzenesulfonic acid, 5-acetoxy-2-hydroxybenzenesulfonic acid and 2,5-diacetoxybenzenesulfonic acid, respectively, with the FGF-1 may be observed.

[2] = tested on: dermatitis induced by the application of benzalkonium chloride on the rat ears; assay: Benzalkonium chloride induced dermatitis on rat ears, Evans blue dye extravasation; assay type: in vivo; details: for percentage of the area stained in blue compared to the total area of the ear (dermatitis extent): treated vs untreated ear
Procedure: Dermatitis was induced by the application of benzalkonium chloride, 5% solution (w/v) (1:5 olive oil:acetone) on the entire extent of the back part of the car ([…]) in anesthetized rats. Dermatitis was induced in both ears. In the assay of 2,5-dihydroxybenzenesulfonate (DHBS), a cream containing 5% of DHBS (w/w) was applied topically only on the back part of the right ear, 30 minutes after the application of benzalkonium chloride. Fifteen minutes later, 0.5% by weight of Evans blue dye solution (400 μL per animal) was injected into the jugular vein. […] Therefore, it can be stated that topical application of 5% DHBS reduced the dermatitis extent.
This observation was confirmed upon quantification of dermatitis extent based on the area of the ear stained in blue with respect to the total area of the ear. Identically obtained photographs of the extended ears were processed in order to determine the stained area and the total area of the ear using a computer program to analyze images (Motic Image). The stained area of each ear was related to the total area to obtain the percentage of the ear affected by the dermatitis. […] 24 hours after dermatitis induction (FIG. 2B), these values were very similar.
Using the same procedure as in the former example, dermatitis was induced by the application of benzalkonium chloride, 5% solution (w/v) (1:5 olive oil:acetone) on the entire extent of the back part of the ear (40 μL/ear) in anesthetized rats. Dermatitis was induced in both ears. A cream containing 5% (w/v) of either 2-acetoxy-5-hydroxybenzenesulfonate (2A-5HBS) or 5-acetoxy-2-hydroxybenzenesulfonate (5A-2HBS) was applied topically only on the back part of the right ear, 30 minutes after the application of benzalkonium chloride. Fifteen minutes later, 0.5% (w/v) of Evans blue dye solution (400 μL per animal) was injected into the jugular vein. […] Therefore, it can be stated that topical application of 5% 2A-5HBS and 5% 5A-2HBS reduced the dermatitis extent.
This observation was confirmed upon quantification of dermatitis extent based on the area of the ear stained in blue with respect to the total area of the ear. Identically obtained photographs of the extended ears were processed in order to determine the stained area and the total area of the ear using a computer program to analyze images (Motic Image). The stained area of each car was related to the total area to obtain the percentage of the ear affected by the dermatitis.

[3] = tested on: dermatitis induced by benzalkonium chloride on the ear of the rat; assay: Benzalkonium chloride induced dermatitis on rat ears, erythema and histological study; assay type: in vivo
Procedure: Using the same model, dermatitis was induced on both ears of two rats, following the same process described above. In this case, 30 minutes after the application of benzalkonium chloride, a rat was treated in both ears with a glycerol solution (FIG. 3A), while the other one was treated in both ears with a glycerol solution containing 2.5% (w/v) of 2,5-diacetoxybenzenesulfonate (DABS) (FIG. 3B).

[4] = tested on: myeloperoxidase (MPO) activity; assay: Myeloperoxidase (MPO) activity in the ear after benzalkonium chloride induced dermatitis; assay type: in vivo, rat; details: for increase in MPO activity in the ear caused by dermatitis: 24 hours after induction
Procedure: In this same model (Hyun E et al. Br J Pharmacol, 2004), dermatitis induction has been associated to an increase in the myeloperoxidase (MPO) activity in the ear, as a marker of leukocyte infiltration in the tissue affected with dermatitis. Based on these evidences, the effect of hydroxybenzene derivatives (i the activity of the MPO in the model described in this example was established. The MPO activity was determined in the ears of control rats (without dermatitis) and in ears on which dermatitis had been induced with benzalkonium chloride and had been treated with vehicle (anhydrous glycerol), 5% DHBS cream or DABS 2.5% solution in glycerol. The ears were frozen in liquid nitrogen 24 hours after the induction of dermatitis and were kept at −80° C. until determination of MPO activity. To determine the MPO activity, the frozen ears were homogenized in phosphate buffer with 0.5% of hexadecyltrimethylammonium bromide. After several freezing/thawing/sonication cycles, the samples were centrifuged at 13,000×g during 20 minutes at 4° C. H2O2 and O-dianisidine were added into the supernatants and the absorbance was measured at 460 nm in a spectrophotometer 1 hour after incubation at room temperature. The MPO activity is expressed as absorbance units per mg of tissue.

[5] = topical 5% (w/v) monoester on right ear vs untreated left ear, 24 hours after induction
[6] = topical 5% monoester solution, 24 hours after induction
[7] = topical 2.5% DABS in glycerol vs vehicle, tissues fixed 24 hours after induction

Chain of Fibroblast Growth Factor-1 (FGF-1) (P05230 whole entry, species assumed): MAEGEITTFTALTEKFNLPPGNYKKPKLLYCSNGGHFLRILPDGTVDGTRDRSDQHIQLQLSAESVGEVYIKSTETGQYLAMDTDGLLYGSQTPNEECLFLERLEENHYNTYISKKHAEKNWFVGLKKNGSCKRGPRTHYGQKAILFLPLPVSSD

Structure (SMILES)	acetoxyl groups kept when bound to FGF-1 [1]	location of the compound bound to FGF-1 [1]	blue stain extent (Evans blue dye extravasation), photographs [2, 5]	percentage of the area stained in blue compared to the total area of the ear (dermatitis extent) [2, 6]	erythema caused by the dermatitis ([3]; topical 2.5% (w/v) DABS in glycerol vs glycerol vehicle)	granulocytes adhered to the capillary endothelial cells (histological study) [3, 7]	leukocyte infiltration (histological study) [3, 7]	tissular edema (histological study) [3, 7]	efficacy on MPO activity relative to 5% DHBS ([4]; 2.5% DABS (half the amount of active principle) compared with 5% DHBS)	increase in MPO activity in the ear caused by dermatitis ([4]; topical 2.5% DABS solution in glycerol vs vehicle)	increase in MPO activity in the ear caused by dermatitis ([4]; topical 5% DHBS cream vs vehicle)	blue stain extent (Evans blue dye extravasation), photographs ([2]; topical cream 5% DHBS on right ear vs untreated left ear, 4 hours after dermatitis induction)	percentage of the area stained in blue compared to the total area of the ear (dermatitis extent) ([2]; topical cream 5% DHBS, 4 hours after induction)
CC(=O)Oc1ccc(O)cc1S(=O)(=O)O [2A-5HBS, 2-acetoxy-5-hydroxybenzenesulfonic acid]	keep the acetoxyl groups in positions 2, 5 and, 2 and 5, respectively	located at a site very close to the site that, as described, is occupied by the 2,5-dihydroxybenzenesulfonic acid	clearly smaller blue stain; also recorded: remarkably reduced dye extravasation	significantly reduced the percentage of the area stained in blue; also recorded: significantly reduced dermatitis extent									
CC(=O)Oc1ccc(O)c(S(=O)(=O)O)c1 [5A-2HBS, 5-acetoxy-2-hydroxybenzenesulfonic acid]	keep the acetoxyl groups in positions 2, 5 and, 2 and 5, respectively	located at a site very close to the site that, as described, is occupied by the 2,5-dihydroxybenzenesulfonic acid	notably reduced; also recorded: remarkably reduced dye extravasation	significantly reduced the percentage of the area stained in blue									
CC(=O)Oc1ccc(OC(C)=O)c(S(=O)(=O)O)c1 [DABS, 2,5-diacetoxybenzenesulfonic acid]	keep the acetoxyl groups in positions 2, 5 and, 2 and 5, respectively	located at a site very close to the site that, as described, is occupied by the 2,5-dihydroxybenzenesulfonic acid			reduced benzalkonium chloride induced dermatitis; also recorded: milder	significant reduction; also recorded: not observed	reduces the edema and the leukocyte infiltration; also recorded: noticeably milder	reduces the edema; also recorded: not observed	slightly higher	significantly reduces			
O=S(=O)(O)c1cc(O)ccc1O [DHBS, 2,5-dihydroxybenzenesulfonic acid, reference compound]											significantly reduced	clearly smaller blue stain; also recorded: remarkably reduced dye extravasation	significantly reduced the percentage of the area stained in blue; also recorded: significantly reduced dermatitis extent
